The values below come from patent publication US9539239B1, “Compositions and methods for treatment of neurodegenerative disease” (priority 2010, dated 2017).

The labels stand for the following.
B1: FLT3 ligand: RTK ligand; ligand of the receptor tyrosine kinase FLT3 (protein, UniProt P49771 27-235, looked up)
Fms-related tyrosine kinase 3 …: TQDCSFQHSPISSDFAVKIRELSDYLLQDYPVTVASNLQDEELCGGLWRLVLAQRWMERLKTVAGSKMQGLLERVNTEIHFVTKCAFQPPPSCLRFVQTNISRLLQETSEQLVALKPWITRQNFSRCLELQCQPDSSTLPPPWSPRPLEATAPTAPQPPLLLLLLLPVGLLLLAAAWCLHWQRTRRRTPRPGEQVPPVPSPQDLLLVEH

One test deals with retinal ganglion cells (RGCs). Description: RGC survival in primary retinal ganglion cell culture (high-content screening). Conditions: potency relative to sunitinib; baseline culture with 2.5 μM forskolin. The format is cell-based, mouse and rat. How it is done: (§1) In this Example, certain compounds were administered to retinal ganglion cells (RGCs) in cell culture to determine the effects of the compounds on neuronal count and neurite growth.
We established a robust high-content screening system combining the immunopanning- or other immunobead-based purification of primary mouse and rat RGCs and automated fluorescence-based imaging analysis (see, e.g., U.S. Patent Publication No. 2007/0185069, incorporated herein by reference). To enhance the assay sensitivity, the culture condition is defined to support a baseline level of RGC viability (20˜60% surviving RGCs after three days in culture) and neurite growth by 2.5 μM forskolin. […]
`CCN(CC)CCNC(=O)c1c(C)[nH]c(/C=C2\C(=O)Nc3ccc([S+](C)[O-])cc32)c1C` (centres unmarked) [Example 17]: the “RGC Survival Activity” value is “*** (at least approximately 80% as potent as sunitinib)”.

Regarding `Cc1[nH]c(/C=C2\C(=O)Nc3ccc([S+](C)[O-])cc32)c(C)c1C(=O)N1CCN(C)CC1` (centres unmarked), the “RGC Survival Activity” value was “* (approximately 10-40% as potent as sunitinib)”. Turning to `CCN(CC)CCNC(=O)c1c(C)[nH]c(/C=C2\C(=O)Nc3ccc([S+](C)[O-])cc32)c1C` (centres unmarked) [Example 18], the “RGC Survival Activity” value is given as “*** (at least approximately 80% as potent as sunitinib)”. Take `CCN(CC)CCNC(=O)c1c(C)[nH]c(/C=C2\C(=O)Nc3ccc(C(=O)N4CCCC4)cc32)c1C` [Example 23]: the “RGC Survival Activity” value was “*** (at least approximately 80% as potent as sunitinib)”. With `Cc1c(/C=C2\C(=O)Nc3ccc(C(=O)N(C)C)cc32)[nH]c2c1CC(C)(C)CC2` [Example 8], the “RGC Survival Activity” value is “** (approximately 40-80% as potent as sunitinib)”. The same measure, in the same setting: then `C[S+]([O-])c1ccc2c(c1)/C(=C/c1cc3c([nH]1)CCCC3)C(=O)N2` (centres unmarked) [Example 6], with “*** (at least approximately 80% as potent as sunitinib)”. Consider `Cc1c(/C=C2\C(=O)Nc3ccc(C(=O)N4CCCC4)cc32)[nH]c2c1C(=O)C(C)(C)CC2` [Example 13], for which the “RGC Survival Activity” value is given as “*** (at least approximately 80% as potent as sunitinib)”. `Cc1[nH]c(/C=C2\C(=O)Nc3ccc(C(=O)N(C)C)cc32)c(C)c1C(=O)NCCN1CCCC1` [Example 25]: the “RGC Survival Activity” value was “*** (at least approximately 80% as potent as sunitinib)”.

On to `CCN(CC)CCNC(=O)c1c(C)[nH]c(/C=C2\C(=O)Nc3ccc(C(=O)N(C)C)cc32)c1C` [Example 26], for which the “RGC Survival Activity” value was “*** (at least approximately 80% as potent as sunitinib)”. The same measure, in the same setting: then `Cc1c([S+](C)[O-])ccc2c1/C(=C/c1cc3c([nH]1)CCCC3)C(=O)N2` (centres unmarked) [Example 5], with “* (approximately 10-40% as potent as sunitinib)”; and `CN(C)C(=O)c1ccc2c(c1)/C(=C/c1cc3c([nH]1)CC(C)(C)CC3=O)C(=O)N2` [Example 15], with “** (approximately 40-80% as potent as sunitinib)”; and `CON(C)C(=O)c1ccc2c(c1)/C(=C/c1[nH]c3c(c1C)C(=O)C(C)(C)CC3)C(=O)N2` [Example 9], with “*** (at least approximately 80% as potent as sunitinib)”. Take `CCN(CC)CCNC(=O)c1c(C)[nH]c(/C=C2\C(=O)Nc3ccc([S+]([O-])CC)cc32)c1C` (centres unmarked) [Example 19]: the “RGC Survival Activity” value is “*** (at least approximately 80% as potent as sunitinib)”.

As to `Cc1[nH]c(/C=C2\C(=O)Nc3ccc([S+](C)[O-])cc32)c(C)c1C(=O)N1CCOCC1` (centres unmarked), the “RGC Survival Activity” value is on record as “** (approximately 40-80% as potent as sunitinib)”. Same read-out and setting: the result for `C[S+]([O-])c1ccc2c(c1)/C(=C/c1cc3c([nH]1)CC(C)(C)CC3=O)C(=O)N2` (centres unmarked) [Example 2] reads “*** (at least approximately 80% as potent as sunitinib)”; that for `CCN(C)C(=O)c1ccc2c(c1)/C(=C/c1[nH]c3c(c1C)C(=O)C(C)(C)CC3)C(=O)N2` [Example 10], “*** (at least approximately 80% as potent as sunitinib)”.

On to `CN(C)C(=O)c1ccc2c(c1)/C(=C/c1cc3c([nH]1)CCCC3=O)C(=O)N2` [Example 14], for which the “RGC Survival Activity” value is “*** (at least approximately 80% as potent as sunitinib)”. For `C[S+]([O-])c1ccc2c(c1)/C(=C/c1cc3c([nH]1)CCCC3=O)C(=O)N2` (centres unmarked) [Example 3], the “RGC Survival Activity” value was “*** (at least approximately 80% as potent as sunitinib)”.

For the molecule `Cc1c(/C=C2\C(=O)Nc3ccc(C(=O)N4CCCCCC4)cc32)[nH]c2c1C(=O)C(C)(C)CC2` [Example 12], the “RGC Survival Activity” value is “** (approximately 40-80% as potent as sunitinib)”. For `Cc1c(/C=C2\C(=O)Nc3ccc(C(=O)N(C)C)cc32)[nH]c2c1C(=O)C(C)(C)CC2` [Example 16], the “RGC Survival Activity” value was “*** (at least approximately 80% as potent as sunitinib)”.

Consider `CCN(CC)CCNC(=O)c1c(C)[nH]c(/C=C2\C(=O)Nc3ccc(C(=O)N(C)OC)cc32)c1C` [Example 24], for which the “RGC Survival Activity” value was “*** (at least approximately 80% as potent as sunitinib)”.

With `CCCCN(C)C(=O)c1ccc2c(c1)/C(=C/c1[nH]c3c(c1C)C(=O)C(C)(C)CC3)C(=O)N2` [Example 11], the “RGC Survival Activity” value is given as “** (approximately 40-80% as potent as sunitinib)”.

In the case of `CC[S+]([O-])c1ccc2c(c1)/C(=C/c1cc3c([nH]1)CCCC3)C(=O)N2` (centres unmarked) [Example 7], the “RGC Survival Activity” value is on record as “*** (at least approximately 80% as potent as sunitinib)”.

Another test has as its system retinal ganglion cells (RGCs). Description: RGC neurite growth in primary retinal ganglion cell culture (high-content screening). Type of test: cell-based, mouse and rat. Conditions: potency relative to sunitinib; baseline culture with 2.5 μM forskolin. The protocol: as §1
We established a robust high-content screening system combining the immunopanning- or other immunobead-based purification of primary mouse and rat RGCs and automated fluorescence-based imaging analysis (see, e.g., U.S. Patent Publication No. 2007/0185069, incorporated herein by reference). To enhance the assay sensitivity, the culture condition is defined to support a baseline level of RGC viability (20˜60% surviving RGCs after three days in culture) and neurite growth by 2.5 μM forskolin.
In addition, certain tested compounds stimulated RGC neurite growth.
For the molecule `CCN(CC)CCNC(=O)c1c(C)[nH]c(/C=C2\C(=O)Nc3ccc([S+](C)[O-])cc32)c1C` (centres unmarked) [Example 17], the “Neurite Promotion” value is given as “*** (at least approximately 80% as potent as sunitinib)”. On to `CCN(CC)CCNC(=O)c1c(C)[nH]c(/C=C2\C(=O)Nc3ccc([S+](C)[O-])cc32)c1C` (centres unmarked) [Example 18], for which the “Neurite Promotion” value is reported as “*** (at least approximately 80% as potent as sunitinib)”. Take `Cc1c([S+](C)[O-])ccc2c1/C(=C/c1cc3c([nH]1)CCCC3)C(=O)N2` (centres unmarked) [Example 5]: the “Neurite Promotion” value is “** (approximately 40-80% as potent as sunitinib)”.

In another test the test system is RGC. In words: Effect of FLT3 ligand on RGC survival. Conditions: 4 ng/ml (its EC50). The format is cell-based.
Turning to B1, the “reduction of RGC survival” value is “does not do so”.

The test is the same for the next values; noted with them: 16 ng/ml, four times its EC50.
B1: the “reduction of RGC survival” value amounted to 38.3%.

System in another test: not given
Assay: not given
Conditions: cited from earlier work.
Regarding B1, the half-maximal effective concentration (EC50) was 4 ng/mL.
